Tests used:
Assay in all cases: KINOMEscan kinase binding assay (Eurofins/DiscoveRx), % Ctrl
kinases [1] = biological target: T1, kinases (Homo sapiens, UniProt P07949, V804M)
T1 construct: purchased Eurofins/DiscoveRx; host or cells: E. coli BL21-derived host (T7 phage display) for most kinases; HEK-293 for the rest
Summary of the method: (§1)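 Competition binding: DNA- or phage-tagged kinases (T7 phage in E. coli BL21, or HEK-293-expressed) with immobilized biotinylated ligand beads and test compound, 1 h at room temperature. Bead-bound kinase eluted and quantified by qPCR; % Ctrl = (compound − positive control)/(negative control − positive control) ×100 at a single compound concentration.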

kinases [2] = biological target: T2, kinases (Homo sapiens, UniProt P36888)
T2 construct: purchased Eurofins/DiscoveRx; host or cells: E. coli BL21-derived host (T7 phage display) for most kinases; HEK-293 for the rest
T2 sequence (P36888 27-993): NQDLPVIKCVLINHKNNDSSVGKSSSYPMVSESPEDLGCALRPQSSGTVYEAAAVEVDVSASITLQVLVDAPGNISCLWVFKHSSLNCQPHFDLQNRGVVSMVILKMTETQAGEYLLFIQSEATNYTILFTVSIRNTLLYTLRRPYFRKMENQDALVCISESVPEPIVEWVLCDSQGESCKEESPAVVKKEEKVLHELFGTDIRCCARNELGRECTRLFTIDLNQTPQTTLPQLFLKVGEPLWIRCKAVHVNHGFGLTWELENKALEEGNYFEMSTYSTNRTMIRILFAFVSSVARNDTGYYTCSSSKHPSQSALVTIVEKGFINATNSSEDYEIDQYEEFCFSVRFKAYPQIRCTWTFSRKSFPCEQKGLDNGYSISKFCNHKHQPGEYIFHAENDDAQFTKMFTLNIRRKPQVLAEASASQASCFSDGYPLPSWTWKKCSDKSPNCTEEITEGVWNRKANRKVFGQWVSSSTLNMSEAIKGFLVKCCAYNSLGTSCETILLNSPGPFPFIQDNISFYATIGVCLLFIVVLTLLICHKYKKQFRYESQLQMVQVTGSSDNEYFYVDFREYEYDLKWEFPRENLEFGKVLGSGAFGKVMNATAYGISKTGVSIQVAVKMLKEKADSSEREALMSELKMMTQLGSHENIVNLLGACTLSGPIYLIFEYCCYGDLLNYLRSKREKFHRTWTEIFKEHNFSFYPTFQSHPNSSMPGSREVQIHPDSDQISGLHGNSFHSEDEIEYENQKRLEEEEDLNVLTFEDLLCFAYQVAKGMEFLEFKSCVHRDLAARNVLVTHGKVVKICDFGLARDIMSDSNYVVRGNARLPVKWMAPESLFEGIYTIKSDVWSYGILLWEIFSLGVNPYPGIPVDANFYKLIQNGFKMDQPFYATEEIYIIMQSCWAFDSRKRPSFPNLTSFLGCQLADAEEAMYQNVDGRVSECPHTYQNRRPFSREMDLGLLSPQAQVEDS
Summary of the method: as §1

kinases [3] = biological target: T3, kinases (Homo sapiens, UniProt P00519, E255K)
T3 construct: purchased Eurofins/DiscoveRx; host or cells: E. coli BL21-derived host (T7 phage display) for most kinases; HEK-293 for the rest
Summary of the method: as §1

kinases [4] = biological target: T4, kinases (Homo sapiens, UniProt P00519, Y253F)
T4 construct: purchased Eurofins/DiscoveRx; host or cells: E. coli BL21-derived host (T7 phage display) for most kinases; HEK-293 for the rest
Summary of the method: as §1

kinases [5] = biological target: T5, kinases (Homo sapiens, UniProt P00519, T315I)
T5 construct: purchased Eurofins/DiscoveRx; host or cells: E. coli BL21-derived host (T7 phage display) for most kinases; HEK-293 for the rest
Summary of the method: as §1

[6] = 1 μM; target FLT3-autoinhibited
[7] = 1 μM; target ABL1(E255K)-phosphorylated
[8] = 1 μM; target ABL1(Y253F)-phosphorylated
[9] = 1 μM; target ABL1(T315I)-nonphosphorylated
[10] = 1 μM; target ABL1(T315I)-phosphorylated
[11] = 1 μM; ABL1(E255K)-phosphorylated
[12] = 1 μM; ABL1(Y253F)-phosphorylated
[13] = 1 μM; ABL1(T315I)-nonphosphorylated
[14] = 1 μM; ABL1(T315I)-phosphorylated
[15] = target FLT3-autoinhibited; 1 μM
[16] = target ABL1(E255K)-phosphorylated; 1 μM
[17] = target ABL1(Y253F)-phosphorylated; 1 μM
[18] = target ABL1(T315I)-nonphosphorylated; 1 μM
[19] = target ABL1(T315I)-phosphorylated; 1 μM

T1 sequence (P07949 29-1114 V804M): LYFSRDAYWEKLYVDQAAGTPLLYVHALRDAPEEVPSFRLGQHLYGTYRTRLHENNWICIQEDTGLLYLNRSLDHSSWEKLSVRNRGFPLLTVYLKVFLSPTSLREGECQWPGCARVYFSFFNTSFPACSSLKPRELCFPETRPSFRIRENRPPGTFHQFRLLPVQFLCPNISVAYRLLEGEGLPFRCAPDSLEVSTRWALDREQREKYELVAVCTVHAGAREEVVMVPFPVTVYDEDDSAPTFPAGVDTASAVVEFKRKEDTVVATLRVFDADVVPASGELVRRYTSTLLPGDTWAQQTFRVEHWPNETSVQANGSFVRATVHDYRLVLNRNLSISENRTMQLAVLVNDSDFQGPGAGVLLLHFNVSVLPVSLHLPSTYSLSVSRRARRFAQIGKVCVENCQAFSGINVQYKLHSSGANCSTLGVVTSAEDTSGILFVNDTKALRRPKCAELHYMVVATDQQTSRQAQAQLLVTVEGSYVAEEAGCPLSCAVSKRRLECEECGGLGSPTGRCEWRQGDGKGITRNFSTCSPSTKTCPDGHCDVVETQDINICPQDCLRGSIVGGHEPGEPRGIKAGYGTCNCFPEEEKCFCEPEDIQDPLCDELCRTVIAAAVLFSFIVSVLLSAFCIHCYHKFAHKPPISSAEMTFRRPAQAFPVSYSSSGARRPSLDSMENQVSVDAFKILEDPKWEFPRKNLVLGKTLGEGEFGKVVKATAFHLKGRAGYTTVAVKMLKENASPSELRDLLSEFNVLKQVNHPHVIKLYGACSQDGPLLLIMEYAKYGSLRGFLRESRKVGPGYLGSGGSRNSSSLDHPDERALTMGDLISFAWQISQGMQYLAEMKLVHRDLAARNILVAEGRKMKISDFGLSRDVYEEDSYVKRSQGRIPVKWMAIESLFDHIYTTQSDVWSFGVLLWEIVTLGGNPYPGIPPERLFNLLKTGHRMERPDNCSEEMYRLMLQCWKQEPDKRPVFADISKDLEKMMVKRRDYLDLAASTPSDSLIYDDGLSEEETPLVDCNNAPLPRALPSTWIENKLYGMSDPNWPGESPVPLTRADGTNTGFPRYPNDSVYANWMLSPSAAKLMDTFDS

% Ctrl, RET(V804M) (kinases [1]; 1 μM; RET(V804M)) [% Ctrl]	% Ctrl, FLT3 (kinases [2]; 1 μM; FLT3) [% Ctrl]	% Ctrl, FLT3-autoinhibited (kinases [2]; 1 μM; FLT3-autoinhibited) [% Ctrl]	% Ctrl, ABL1(E255K)-phosphorylated (kinases [3]; [11]) [% Ctrl]	% Ctrl, ABL1(Y253F)-phosphorylated (kinases [4]; [12]) [% Ctrl]	% Ctrl, ABL1(T315I)-nonphosphorylated (kinases [5]; [13]) [% Ctrl]	% Ctrl, ABL1(T315I)-phosphorylated (kinases [5]; [14]) [% Ctrl]	% Ctrl, RET(V804M) (kinases [1]; target RET(V804M); 1 μM) [% Ctrl]	% Ctrl, FLT3-autoinhibited (kinases [2]; [15]) [% Ctrl]	% Ctrl, FLT3 (kinases [2]; target FLT3; 1 μM) [% Ctrl]	% Ctrl, ABL1(E255K)-phosphorylated (kinases [3]; [16]) [% Ctrl]	% Ctrl, ABL1(Y253F)-phosphorylated (kinases [4]; [17]) [% Ctrl]	% Ctrl, ABL1(T315I)-nonphosphorylated (kinases [5]; [18]) [% Ctrl]	% Ctrl, ABL1(T315I)-phosphorylated (kinases [5]; [19]) [% Ctrl]	SMILES	further results
93	81	100	67	68	97	100	–	–	–	–	–	–	–	Cc1cc2c([nH]1)/C=C1\C(=O)Nc3ccc(nc31)-c1ccccc1OCCCNC2=O [Ex.22, [3a(4)Z]-6-methyl-9,10,11,12-tetrahydro-1,18-(ethanediylidene)dipyrrolo[3,2-g:3′,4′-j][1,5,12]benzoxadiazacyclopentadecine-3,8(2H,5H)-dione]	–
0	0.45	0.15	0.05	0	0	0.1	–	–	–	–	–	–	–	Cc1cc2c([nH]1)/C=C1\C(=O)Nc3ccc(cc31)-c1cnn(C)c1CNCCN(C)C2=O [Ex. 125, [3a(4)Z]-6,9,14-trimethyl-9,10,11,12,13,14-hexahydro-1,17-(ethanediylidene)pyrazolo[4,3-m]dipyrrolo[3,2-f:3′,4′-i][1,4]diazacyclopentadecine-3,8(2H,5H)-dione]	–
–	–	–	–	–	–	–	41	26	1.6	8.4	13	17	25	CN1CCSCCOc2cc3c(cc2Cl)NC(=O)/C3=C\c2[nH]ccc2C1=O [Ex. 153]	–
–	–	–	–	–	–	–	81	76	77	61	91	87	76	Cc1cc2c([nH]1)/C=C1\C(=O)Nc3cc(Cl)c(cc31)OCCO[C@@H](C(=O)N1CCN(C)CC1)CN(C)C2=O [Ex. 138, [7R,16a(17)Z]-19-chloro-2,5-dimethyl-7-(4-methylpipearazine-1-carbonyl)-6,7,9,10-tetrahydro-1H-12,14-(ethanediylidene)dipyrrolo[3,2-i:3′,4′-l][1,4,7]dioxazacyclopentadecine-4,16(5H,15H)-dione]	–
94	100	85	72	98	95	26	–	–	–	–	–	–	–	Cc1cc2c([nH]1)/C=C1\C(=O)Nc3ccc(cc31)-c1ccnn1CCOCCNC2=O [Ex.39, [19a(20)Z]-2-methyl-6,7,9,10-tetrahydro-1H-15,17-(ethanediylidene)pyrazolo[1,5-d]dipyrrolo[3,4-h:2′,3′-k][1,4,14]oxadiazacyclohexadecine-4,19(5H,18H)-dione]	–

The next lines start with the compound.

SMILES	% Ctrl, RET(V804M) (kinases [1]; 1 μM; RET(V804M)) [% Ctrl]	% Ctrl, FLT3 (kinases [2]; 1 μM; FLT3) [% Ctrl]	% Ctrl, FLT3-autoinhibited (kinases [2]; 1 μM; FLT3-autoinhibited) [% Ctrl]	% Ctrl, ABL1(E255K)-phosphorylated (kinases [3]; [11]) [% Ctrl]	% Ctrl, ABL1(Y253F)-phosphorylated (kinases [4]; [12]) [% Ctrl]	% Ctrl, ABL1(T315I)-nonphosphorylated (kinases [5]; [13]) [% Ctrl]	% Ctrl, ABL1(T315I)-phosphorylated (kinases [5]; [14]) [% Ctrl]	% Ctrl, RET(V804M) (kinases [1]; target RET(V804M); 1 μM) [% Ctrl]	% Ctrl, FLT3-autoinhibited (kinases [2]; [15]) [% Ctrl]	% Ctrl, FLT3 (kinases [2]; target FLT3; 1 μM) [% Ctrl]	% Ctrl, ABL1(E255K)-phosphorylated (kinases [3]; [16]) [% Ctrl]	% Ctrl, ABL1(Y253F)-phosphorylated (kinases [4]; [17]) [% Ctrl]	% Ctrl, ABL1(T315I)-nonphosphorylated (kinases [5]; [18]) [% Ctrl]	% Ctrl, ABL1(T315I)-phosphorylated (kinases [5]; [19]) [% Ctrl]	further results
CN1CCOc2cc3c(cc2Cl)NC(=O)/C3=C\c2[nH]ccc2C(=O)N(C)CC1 [Ex. 164, [16a(17)Z]-19-chloro-2,5,8-trimethyl-5,6,7,8,9,10-hexahydro-12,14-(ethanediylidene)dipyrrolo[3,2-i:3′,4′-l][1,4,7]oxadiazacyclopentadecine-4,16(1H,15H)-dione]	–	–	–	–	–	–	–	–	–	–	–	–	–	–	% Ctrl, RET(V804M) (kinases [1]; 1 μM; target RET(V804M)): 2.1 % Ctrl; % Ctrl, FLT3 (kinases [2]; 1 μM; target FLT3): 2.5 % Ctrl; % Ctrl, FLT3-autoinhibited (kinases [2]; [6]): 63 % Ctrl; % Ctrl, ABL1(E255K)-phosphorylated (kinases [3]; [7]): 0.1 % Ctrl; % Ctrl, ABL1(Y253F)-phosphorylated (kinases [4]; [8]): 0.1 % Ctrl; % Ctrl, ABL1(T315I)-nonphosphorylated (kinases [5]; [9]): 0.6 % Ctrl; % Ctrl, ABL1(T315I)-phosphorylated (kinases [5]; [10]): 1.4 % Ctrl
Cc1cc2c([nH]1)/C=C1\C(=O)Nc3ccc(cc31)-c1cnn(C)c1OCCCN(C)C2=O [Ex. 166, [3a(4)Z]-9,14-dimethyl-9,10,11,12-tetrahydro-14H-1,17-(ethanediylidene)pyrazolo[4,3-n]dipyrrolo[3,2-g:3′,4′-j][1,5]oxazacyclopentadecine-3,8(2H,5H)-dione]	–	–	–	–	–	–	–	–	–	–	–	–	–	–	% Ctrl, RET(V804M) (kinases [1]; 1 μM; target RET(V804M)): 0.1 % Ctrl; % Ctrl, FLT3 (kinases [2]; 1 μM; target FLT3): 4.2 % Ctrl; % Ctrl, FLT3-autoinhibited (kinases [2]; [6]): 2 % Ctrl; % Ctrl, ABL1(E255K)-phosphorylated (kinases [3]; [7]): 1.8 % Ctrl; % Ctrl, ABL1(Y253F)-phosphorylated (kinases [4]; [8]): 11 % Ctrl; % Ctrl, ABL1(T315I)-nonphosphorylated (kinases [5]; [9]): 1.4 % Ctrl; % Ctrl, ABL1(T315I)-phosphorylated (kinases [5]; [10]): 1.2 % Ctrl
Cc1cc2c([nH]1)/C=C1\C(=O)Nc3cc(Cl)c(cc31)OCCO[C@@H](C(=O)NC1CNC1)CN(C)C2=O [Ex. 133, [7R,16a(17)Z]-N-(azetidin-3-yl)-19-chloro-2,5-dimethyl-4,16-dioxo-4,5,6,7,9,10,15,16-octahydro-1H-12,14-(ethanediylidene)dipyrrolo[3,2-i:3′,4′-l][1,4,7]dioxazacyclopentadecine-7-carboxamide]	69	48	95	70	57	94	78	–	–	–	–	–	–	–	–
CN1CCOCCOc2cc3c(cc2Cl)NC(=O)/C3=C\c2[nH]ccc2C1=O [Ex. 143, [16a(17)Z]-19-chloro-2,5-dimethyl-6,7,9,10-tetrahydro-1H-12,14-(ethanediylidene)dipyrrolo[3,2-i:3′,4′-l][1,4,7]oxathiazacyclopentadecine-4,16(5H,15H)-dione]	–	–	–	–	–	–	–	31	62	15	6.4	9.1	42	27	–
Cc1cc2c([nH]1)/C=C1\C(=O)Nc3ccc(cc31)OCCOCCN(C)C2=O [Ex.91, [16a(17)Z]-2,5-dimethyl-6,7,9,10-tetrahydro-1H-12,14-(ethanediylidene)dipyrrolo[3,2-i:3′,4′-l][1,4,7]dioxazacyclopentadecine-4,16(5H,15H)-dione]	4	11	38	14	7.8	4.5	5.8	–	–	–	–	–	–	–	–
